Results: US20090233910A1, “Npy antagonists, preparation and uses” (CEREP, priority 2005, published 2009)

How the values were obtained:
NPY Y1 receptor = target: T1, NPY Y1 receptor (Homo sapiens, UniProt P25929); test: cAMP measurement test in SK-N-MC cells (shift of NPY dose-effect curves, forskoline-stimulated); assay type: cell-based; conditions: Schild analysis vs NPY, read-out: pA2 Y1 (converted)
T1 construct: host or cells: SK-N-MC cells (whole-cell suspension)
T1 sequence (P25929 1-384): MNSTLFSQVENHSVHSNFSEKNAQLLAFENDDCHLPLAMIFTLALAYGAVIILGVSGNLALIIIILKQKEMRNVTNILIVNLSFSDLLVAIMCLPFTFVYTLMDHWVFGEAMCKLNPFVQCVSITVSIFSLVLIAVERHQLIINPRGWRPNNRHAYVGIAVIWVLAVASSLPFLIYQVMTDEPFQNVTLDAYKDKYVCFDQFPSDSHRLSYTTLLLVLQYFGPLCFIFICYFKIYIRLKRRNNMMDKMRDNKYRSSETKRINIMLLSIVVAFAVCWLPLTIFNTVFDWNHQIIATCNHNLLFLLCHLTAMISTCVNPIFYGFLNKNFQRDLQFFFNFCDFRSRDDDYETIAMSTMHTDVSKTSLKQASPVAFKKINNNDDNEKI
Protocol: The SK-N-MC cells are cultured in 96-well plates. After aspirating the culture medium, the cells are washed with a phosphate buffer pH 7.4 (Invitrogen ref. 14190-094), then lifted with a Versene solution (Invitrogen, ref 15040-033). The cells are centrifuged at 500×g for 10 minutes at 4° C. They are resuspended in a stimulation buffer containing isobutyl-methyl-xanthine in sufficient concentration to inhibit the phosphodiesterases (Flashplate kit, Perkin Elmer). The tested compounds are added 10 minutes before depositing the NPY (Bachem, H3322) in variable concentration, then the 300 nM forskoline (Sigma, F6886). The cells are in cubated 1 hour at ambient temperature to allow cAMP production whose levels are measured using the Flashplate method after 2 hours incubation with the cAMP tracer [^125I]. The results are expressed in pA2 form observing the displacement of NPY dose-effect curves in the absence and presence of increasing concentrations of test compound [Schild, 1949, pAx and competitive drug antagonism, Br. J. Pharmacol., 4, 277-280].

NPY Y2 receptor = target: T2, NPY Y2 receptor (Homo sapiens, UniProt P49146); test: Binding test to the NPY Y2 receptor ([125I]-PYY, KAN.TS cell suspension)
T2 construct: host or cells: KAN.TS cells (whole-cell suspension)
T2 sequence (P49146 1-381): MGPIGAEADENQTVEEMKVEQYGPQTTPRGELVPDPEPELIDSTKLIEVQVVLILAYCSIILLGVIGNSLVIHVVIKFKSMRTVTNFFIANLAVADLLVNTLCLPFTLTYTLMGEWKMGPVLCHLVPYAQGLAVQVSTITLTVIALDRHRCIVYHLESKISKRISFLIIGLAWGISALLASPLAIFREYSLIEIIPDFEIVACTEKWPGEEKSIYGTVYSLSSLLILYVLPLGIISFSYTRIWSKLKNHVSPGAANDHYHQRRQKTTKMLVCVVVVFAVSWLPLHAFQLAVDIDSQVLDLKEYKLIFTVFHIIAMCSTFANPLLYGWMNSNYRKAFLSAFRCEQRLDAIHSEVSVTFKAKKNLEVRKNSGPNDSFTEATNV
Protocol: The KAN.TS cells (Amersham RPNQ0081) are cultured at 37° C. in DMEM Glutamax medium (Life Technology ref. 61965026) containing 15% foetal calf serum (Invitrogen), 1% L-Glutamine (Invitrogen ref.250300-032), 50 IU/ml penicillin and 50 μg/ml of streptomycin (Invitrogen ref. 15070022) in a humid atmosphere containing 5% CO2.
After aspirating the culture medium, the cells are washed with phosphate buffer pH 7.4 (Sigma ref. D5652), then lifted with a solution of PBS^−, 0.5 mM EDTA (ethylenediaminetetraacetic acid) (Sigma ref ED 2SS). […] The cells are counted and centrifuged at 1500 rpm for 10 min then resuspended in the freeze buffer and aliquoted into ten million cells per millilitre of freeze buffer, and stored at −70° C.
The cell suspension with 25000 cells/ml is incubated 1 h at 37° C. in an incubation buffer pH 7.4 containing 50 mM HEPES/NaOH, 2.5 mM calcium chloride, 1 mM magnesium chloride, 0.025% sodium azide, 1 mg/ml bovine albumin and 15 pM of [^125I]-PYY (Perkin Elmer, NEX341). […] The radioactivity deposited on the filter is measured by liquid scintillation count (TopCount, Packard). Non-specific binding is determined in the presence of 1 μM NPY (Bachem, H3322). […]

Kb (NPY Y1 receptor): 6.31 nM
IC50 (NPY Y2 receptor; KAN.TS cells, [125I]-PYY): > 10000 nM
inhibition at 10 µM (NPY Y2 receptor; inhibition of specific binding at 10 μM of compound, read-out: % Inh at 10 μM Y2): 10%
Structure (SMILES): CCCCN1CCC(Oc2ccc(C(=O)Nc3ccc(Oc4ccc(NC(=O)NC(CC)CC)cc4OC)cc3)cc2)CC1 [Example 103, 4-(1-Butyl-piperidin-4-yloxy)-N-(4-{4-[3-(1-ethyl-propyl)-ureido]-2-methoxy-phenoxy}-phenyl)-benzamide]
